SMILES strings stand for the structures.

Results on 1 compound are retold here after US11207289B2, “Use of benzofuran lignans to induce IL-25 expression and suppress mammary tumor metastasis” (ACADEMIA SINICA, priority 2016, dated 2021).

Series [1] is described as follows: MTT assay, cytotoxic effect on WI38. Type of series: cell-based. The following applies: human, WI38 cells (human fibroblast cell line). The procedure: M10, WI38, SKBR3, and MDA-MB-231 cells (1×10^5 cells/ml) dispensed in 96-well plates were incubated with vehicle or test compounds (Q2-3) for 24 h or 72 h in corresponding basal medium in a 5% CO2 incubator. To evaluate the effect of secreted IL-25 from Q2-3-treated fibroblasts on growth activity of mammary tumor cells, 4T1 and MDA-MB-231 cells (1×10^4 cells/ml) dispensed in 96-well plates were incubated with control medium or different fibroblast conditioned media (200 μl/ml) which was changed daily for 5 days. All treatments were performed in triplicate cell cultures. The growth activity of cells was assayed using a 3-(4, 5-dimethythiazol-2-yl)-2, 5-diphenyl tetrazolium bromide (MTT; Sigma-Aldrich) colorimetric method. The absorbance at 570 nm (A570) was measured using a multiwall scanning spectrophotometer.
FIG. 1 is a schematic depiction of cytotoxic effects of dihydrobenzofuran lignan (Q2-3) on breast tumor cells. (a): Scheme for synthesis of Q2-3 (methyl (E)-3-[2-(3,4-dihydroxyphenyl)-7-hydroxy-3-methoxycarbonyl-2,3-dihydro-1-benzofuran-5yl]prop-2-enoate) from two caffeic acid methyl ester molecules. […] The beginning cytotoxic dosage of Q2-3 was detected at 0.3 μM, with >50% kill rate on SKBR3 and MDA-MB-231 cells. […]

The next series concerns human IL-25. Put plainly: 3-D culture, western blot of IL-25 in WI38 fibroblasts and WI38-CM. Type of series: cell-based. The procedure: To mimic the tumor microenvironment, a 3-dimensional (3-D) co-culture system was employed for the maintenance of mammary tumor cells and tumor-associated fibroblasts in adjacent collagen gels as reported in Rajan et al., Nature protocols, 1, 2753-2758 (2006). More specifically, rat tail collagen solution dissolved in acetic acid was neutralized by 1 N NaOH and then mixed with 10×PBS at 4° C. in a ratio of 9:1. To construct solid tumor-like cell mass, mouse (4T1 or TS/A cells) or human (MCF-7 or MDA-MB-231 cells) mammary tumor cells in each correspondent culture medium (1×10^6 cells/ml) were mixed with 4 mg/ml collagen solution in a ratio of 1:1. Four drops of collagen-tumor cell mixture ([…]) were immediately and separately loaded on culture substratum in each well of a 6-well plate. The plates were then turned-over and kept in CO2 incubator at 37° C. for collagen gelation. […]
To pull down and deplete IL-25 protein molecules in 3T3 or MDA-MB-231 cell conditioned media, the Dynabeads antibody coupling kit (Life Technology; 14311D) was used according to the manufacturer's recommendations, yielding 10 mg/ml anti-IL25 antibody (ProteinTech, Chicago, Ill.)-coupled beads. […] The antibody-pulled down proteins from 3T3-CM, NHDF-CM or WI38-CM, were detected for the content of secreted IL-25 protein in each conditioned medium using western blot analysis. […]
For orientation: Immunoblotting shows a protein as a band on a membrane.

A further series deals with MDA-MB-231-Luc2 cells. Put plainly: MDA-MD-231-Luc2 tumor resection model in nude mice: metastasis and survival. As to conditions: Q2-3 100 μg/kg, DT 5 mg/kg. Type of series: in vivo.
The subject of the next series is Jurkat cells. As to conditions: cited from earlier work.
A further series concerns K562 cells. As to conditions: cited from earlier work.

With `COC(=O)/C=C/c1cc(O)c2c(c1)C(C(=O)OC)C(c1ccc(O)c(O)c1)O2` (stereo not shown) [Q2-3, methyl(E)-3-[2-(3,4-dihydroxyphenyl)-7-hydroxy-3-methoxycarbonyl-2,3-dihydro-1-benzofuran-5yl]-prop-2-enoate], the viability (in general, a read-out of living cells in per cent, often relative to untreated cells) at 2 µM in series [1] was ≥ 80%. Further, the “expression of IL-25 in human (WI38) fibroblasts” value in the series with human IL-25 (3-D culture, treatment 24 h or 72 h) was “increased”. The “level of secreted IL-25 in fibroblast-conditioned medium vs untreated” value with human IL-25 (WI38-CM) was “significantly higher”. Moreover, in the series on MDA-MB-231-Luc2 cells, the survival rate result was “more effective than treatment with DT”. In addition, the “anti-metastatic activity (luminescent activity of MDA-MB-231-Luc2 cells)” value in the series on MDA-MB-231-Luc2 cells (i.v. 3 weeks post tumor resection) is reported as “more effective than treatment with DT”. Further, the anti-proliferation effect result with Jurkat cells and in the series on K562 cells was “significant anti-proliferation effect” in each case.
